The target of experiment [1] is T1, 9J10/14-3-3ε interaction (Homo sapiens, UniProt P62258).
T1 construct: A synthetic gene construct encoding full length human 14-3-3ε; made in house; host or cells: E. coli BL21(DE3)
T1 sequence (P62258 1-255): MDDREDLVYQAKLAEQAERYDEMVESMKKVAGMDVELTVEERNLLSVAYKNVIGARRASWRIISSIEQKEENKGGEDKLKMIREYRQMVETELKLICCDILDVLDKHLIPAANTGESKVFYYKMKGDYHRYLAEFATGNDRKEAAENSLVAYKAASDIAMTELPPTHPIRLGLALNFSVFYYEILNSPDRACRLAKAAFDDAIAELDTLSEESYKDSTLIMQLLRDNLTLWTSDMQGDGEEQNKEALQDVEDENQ
Put plainly: FP competition, TAMRA-p9J10Min binding to 14-3-3ε. As to conditions: 10nM TAMRA-p9J10Min, His-14-3-3ε 1.5 μM, top concentration 200 μM, 0.4% DMSO; mean of three independent experiments; read-out: IC50, FP. The protocol:
Protein purity was visualized by running SDS-PAGE. […] Compound dilution plates, black 384 well NBS assay plates and tip racks were loaded into the Cytomat as indicated by the scheduling software. […] Test compounds were diluted to 3X final concentration in the dilution plates. 10 μL of diluted compound was added into each well of the assay plate followed by 10μL of […]-3-3ε and 10μL of TAMRA-p9J10Min. Plates were incubated at room temperature for 20 min on the robot's deck or in the Cytomat before the Fluorescence Polarisation was read using the BMG PheraStar plate reader. Test compounds were assayed in triplicate. […] DMSO controls were run alongside all experimental compounds and % inhibition normalised to these controls. All other experimental conditions were as described above.

Experiment [2] has as its target T1, 9J10/14-3-3ε interaction. Put plainly: competitive microscale thermophoresis (MST). As to conditions: 20 nM labeled 14-3-3ε, 1 μM cognate peptide (EC80), 2% DMSO, 25°C; mean of three independent experiments. It counts as binding. The protocol:
(§1) Protein purity was visualized by running SDS-PAGE.
The 14-3-3ε protein was labeled with NT-647-NHS fluorescent dye using the Monolith Protein Labeling Kit (Cat# MO-L011, NanoTemper Technologies). Assays were carried out in 10 mM Hepes, 150 mM NaCl and 0.01% Tween 20. For the direct binding assay, 10 μL of labeled protein at a final concentration of 20 nM was mixed with 10 μL of cognate peptide. For the competitive assay, 10 μL of labeled protein at a final concentration of 20 nM was mixed with 1 μM of cognate peptide at the EC80 concentration determined by prior titration using a 16-point serial dilution by direct-binding MST. […] An initial ‘‘CapillaryScan’’ was performed to scan for fluorescence across the length of the capillary tray to determine the exact position of each capillary before the MST measurement was started. Test compound in 2% final DMSO concentration was assayed at 16 different concentrations by serial dilution, and data were analyzed using NanoTemper analysis software with ‘‘T-jump + Thermophoresis’’ settings. The change in thermophoresis between different experimental conditions was expressed as the change in the normalized fluorescence (ΔFnorm), which is defined as Fhot/Fcold (F-values correspond to average fluorescence values between defined areas in the curve under steadystate conditions under control (Fcold) or experimental (Fhot) conditions). […]
For orientation: Microscale thermophoresis detects binding through changes in fluorescence in a small temperature gradient.

Experiment [3] deals with polo-box domain of human polo-like kinase 1 (PLK1). Put plainly: selectivity: substrate recognition by polo-box domain. It counts as binding.
In experiment [4] the target is T2, 14-3-3ε (Homo sapiens, UniProt P62258).
T2 sequence (P62258 1-255): T1 sequence (P62258 1-255)
Put plainly: STD-NMR. It counts as binding. To be noted: 100 μM 9J10, 10 μM 14-3-3ε, 2% d6-DMSO. Here is the method: as §1
1H NMR and STD spectra were recorded with a Bruker Avance-III HD 600 MHz at 298 K. Bruker TopSpin software was used to acquire and process the NMR data. NMR samples were prepared in D2O, with 100 μM 9J10 peptide (LNRTPGRRRN(p-Serine)N-acid) (Sigma-Aldrich), and 10 μM 14-3-3ε protein. For STD NMR measurements standard Bruker pulse sequence stddiffesgp.3 was used, the on-resonance frequency was set to be 0 ppm, and the off-resonance frequency at −40 ppm. The number of scans was typically 64, both the saturation pulses and relaxation delay were set to be 5 s and the power of the shaped pulse for saturation was set at 40 dB. Experiments with the varying concentrations of CU7218 were performed by mixing appropriate volume of the compound in DMSO and the final DMSO concentration was adjusted to 2.0% by using d6-DMSO.

The structures appear in SMILES notation. Some results are limits rather than exact numbers.

Broadly, the IC50 is the concentration at which inhibition is half-maximal. As to `Cc1c(C(=O)O)sc2[nH]c(=S)[nH]c(=O)c12` [CU7218], the IC50 was found to be 111 µM in experiment [1] and 26.5 µM in experiment [2]. Also, in experiment [3], the “disruption of substrate recognition by PLK1 polo-box domain” value is listed as “failed to disrupt substrate recognition”. Also, the “9J10 STD signal intensity with CU7218” value in experiment [4] is “markedly reduced the 9J10 STD signal intensity”. In addition, the “lowest CU7218 concentration markedly reducing the 9J10 STD signal” value in experiment [4] (tested 50-250 μM) is no less than 150 µM.

The record behind these values is PMC8610377, “Target identification for small-molecule discovery in the FOXO3a tumor-suppressor pathway using a biodiverse peptide library” (Cell Chemical Biology, 2021).
